Where a name gives a salt, the structure may show the parent alone.

These results are taken from patent US9434727B2, “Substituted 4-phenylpiperidines, their preparation and use” (THE TRUSTEES OF COLUMBIA UNIVERSITY IN THE CITY OF NEW YORK, priority 2014, dated 2016).

One assay deals with RBP4 (Homo sapiens (Human), UniProt P02753). The assay is described as follows: Scintillation proximity (SPA) RBP4 binding assay. The settings on record: 10 nM 3H-Retinol, 50 nM biotinylated RBP4. Summed up:
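Biotinylated urinary human RBP4 (50 nM) on streptavidin-PVT SPA beads with 10 nM ³H-retinol and test compound, in PBS pH 7.4, 1 mM EDTA, 0.1% BSA, 0.5% CHAPS. Nonspecific binding with 20 μM unlabeled retinol. Equilibrated 6 h at room temperature then overnight at 4° C under dim light.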

A further assay concerns the target RBP4-TTR interaction (Homo sapiens (Human), UniProt P02753). Briefly: TR-FRET (HTRF) assay for retinol-induced RBP4-TTR interaction. It counts as biochemical. To be noted: in the presence of 1 μM retinol; read-out: HTRF assay for antagonists of RBP4-TTR interaction: IC50. Summed up: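 Bacterial MBP-RBP4 and Eu³⁺-cryptate-labeled untagged human TTR were incubated with titrated compound in the presence of 1 μM retinol, overnight at +4° C in the dark. Buffer: 10 mM Tris-HCl pH 7.5, 1 mM DTT, 0.05% NP-40, 0.05% Prionex, 6% glycerol, 400 mM KF. Signal is reported as Flu665/Flu620×10,000.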
A general note: TR-FRET usually uses a lanthanide donor and a delayed reading to cut background.

In another assay the target is serum RBP4 (Mus musculus (Mouse), UniProt Q00724). The assay is described as follows: Serum RBP4 levels in Abca4−/− mice. It counts as in vivo. The settings on record: 25 mg/kg for 12 weeks, mice starting at 17 weeks old. The method, then: (§1) The effectiveness of the compounds listed in Table 1 are tested in wild-type and Abca4−/− mice. The Abca4−/− mouse model manifests accelerated accumulation of lipofuscin in the RPE and is considered a pre-clinical efficacy model for a drug reducing lipofuscin accumulation. Compounds are orally dosed for 3 weeks at 30 mg/kg. There is a reduction in the serum RBP4 level in treated animals. The levels of A2E/isoA2E and other bisretinoids are reduced in treated mice.
(§2) Abca4−/− mice have A2E levels in the ˜15-19 pmoles/eye range at 17 weeks old. Mice, starting at 17 weeks old, were treated with 25 mg/kg of Compound 81 for 12 weeks.

In a further assay the test system is Abca4−/− mice. Briefly: Bisretinoid accumulation in eyes of Abca4−/− mice. It counts as in vivo, mouse. The settings on record: 25 mg/kg for 12 weeks, mice starting at 17 weeks old, versus vehicle-treated controls. The method, then: as §1, §2

Take `O=C(c1n[nH]c2c1CCNC2)N1CCC(c2cccc(F)c2C(F)(F)F)CC1` [Compound 30, (4-(3-Fluoro-2-(trifluoromethyl)phenyl)piperidin-1-yl)(4,5,6,7-tetrahydro-1H-pyrazolo[3,4-c]pyridin-3-yl)methanone Hydrochloride]: the IC50 at RBP4 was found to be 0.0133 µM; at RBP4-TTR interaction, 0.0441 µM. Further, on serum RBP4 (present-tense paper example), the “serum RBP4 level” value is “significant serum RBP4 reduction”.
For `O=C(c1n[nH]c2c1CCNC2)N1CCC(c2ccc(F)c(F)c2C(F)(F)F)CC1` [Compound 34], the half-inhibitory concentration (IC50) on RBP4 turned out to be 0.0207 µM; on RBP4-TTR interaction it was 0.0531 µM. In addition, the “serum RBP4 level” value on serum RBP4 (present-tense paper example) is given as “significant serum RBP4 reduction”.
`O=C(c1n[nH]c2c1CNCC2)N1CCC(c2ccc(F)c(F)c2C(F)(F)F)CC1` [Compound 36, (4-(3,4-Difluoro-2-(trifluoromethyl)phenyl)piperidin-1-yl)(4,5,6,7-tetrahydro-1H-pyrazolo[4,3-c]pyridin-3-yl)methanone Trifluoroacetic Acid Salt]: the IC50 was determined as 0.0109 µM on RBP4 and 0.291 µM at RBP4-TTR interaction. Also, the “serum RBP4 level” value at serum RBP4 (present-tense paper example) is on record as “significant serum RBP4 reduction”.
As to `O=C(c1n[nH]c2c1CNC2)N1CCC(c2ccc(F)c(F)c2C(F)(F)F)CC1` [Compound 38, (4-(3,4-Difluoro-2-(trifluoromethyl)phenyl)piperidin-1-yl)(1,4,5,6-tetrahydropyrrolo[3,4-c]pyrazol-3-yl)methanone Hydrochloride], the IC50 on RBP4 turned out to be 0.0269 µM; at RBP4-TTR interaction it was 0.2 µM. In addition, the “serum RBP4 level” value at serum RBP4 (present-tense paper example) is reported as “significant serum RBP4 reduction”.
In the same order, the values of `O=C(c1n[nH]c2c1CCNC2)N1CCC(c2cccc(F)c2Cl)CC1` [Compound 40, (4-(2-Chloro-3-fluorophenyl)piperidin-1-yl)(4,5,6,7-tetrahydro-1Hpyrazolo[3,4-c]pyridin-3-yl)methanone Hydrochloride] are 0.014 µM, 0.0849 µM and “significant serum RBP4 reduction”.
Consider `O=C(c1n[nH]c2c1CNCC2)N1CCC(c2cccc(F)c2Cl)CC1` [Compound 42, (4-(2-Chloro-3-fluorophenyl)piperidin-1-yl)(4,5,6,7-tetrahydro-1Hpyrazolo[4,3-c]pyridin-3-yl) methanone Hydrochloride], for which the results for the IC50 at RBP4 and on RBP4-TTR interaction were 0.424 µM and 0.791 µM, respectively. For the same compound, the “serum RBP4 level” value at serum RBP4 (present-tense paper example) is listed as “significant serum RBP4 reduction”.
As to `CC(=O)N1CCc2c(C(=O)N3CCC(c4ccc(F)c(F)c4C(F)(F)F)CC3)n[nH]c2C1` [Compound 81, 1-(3-(4-(3,4-Difluoro-2-(trifluoromethyl)phenyl)piperidine-1-carbonyl)-4,5-dihydro-1H-pyrazolo[3,4-c]pyridin-6(7H)-yl)ethanone], the “reduction in bisretinoid content” value in the assay on Abca4−/− mice was found to be 53%. The “serum RBP4 level” value at serum RBP4 is “significant serum RBP4 reduction”.
For `COC(=O)N1CCc2c(C(=O)N3CCC(c4cccc(F)c4Cl)CC3)n[nH]c2C1` [Compound 147, Methyl 3-(4-(2-chloro-3-fluorophenyl)piperidine-1-carbonyl)-4,5-dihydro-1H-pyrazolo[3,4-c]pyridine-6(7H)-carboxylate], the IC50 is 0.0171 µM on RBP4 and 0.0255 µM at RBP4-TTR interaction.
For `CC(=O)N1CCc2c(C(=O)N3CCC(c4cccc(F)c4Cl)CC3)n[nH]c2C1` [Compound 150, 1-(3-(4-(2-chloro-3-fluorophenyl)piperidine-1-carbonyl)-4,5-dihydro-1H-pyrazolo[3,4-c]pyridin-6(7H)-yl)ethanone], the values for the IC50 at RBP4 and on RBP4-TTR interaction were 0.00484 µM and 0.0237 µM, respectively.
For the compound `CS(=O)(=O)N1CCc2[nH]nc(C(=O)N3CCC(c4cccc(F)c4Cl)CC3)c2C1` [Compound 151], the IC50 came out at 0.0103 µM at RBP4 and 0.0677 µM on RBP4-TTR interaction.
As to `N#Cc1ccc2nnc(C(=O)N3CCC(c4cccc(F)c4Cl)CC3)n2c1` [Compound 152, 3-(4-(2-chloro-3-fluorophenyl)piperidine-1-carbonyl)-[1,2,4]triazolo[4,3-a]pyridine-6-carbonitrile], the 50% inhibitory concentration (IC50) at RBP4 stood at 0.0031 µM; on RBP4-TTR interaction, 0.0278 µM.
In the same order, the values of `CC(=O)N1CCc2c(C(=O)N3CCC(c4cc(C(F)(F)F)cc(C(F)(F)F)c4)CC3)n[nH]c2C1` [Compound 153, 1-(3-(4-(3,5-bis(trifluoromethyl)phenyl)piperidine-1-carbonyl)-4,5-dihydro-1H-pyrazolo[3,4-c]pyridin-6(7H)-yl)ethanone] are 0.149 µM and 0.833 µM.
For the compound `CS(=O)(=O)N1CCc2[nH]nc(C(=O)N3CCC(c4cc(C(F)(F)F)cc(C(F)(F)F)c4)CC3)c2C1` [Compound 154, (4-(3,5-bis(trifluoromethyl)phenyl)piperidin-1-yl)(5-(methylsulfonyl)-4,5,6,7-tetrahydro-1H-pyrazolo[4,3-c]pyridin-3-yl)methanone], the half-inhibitory concentration (IC50) came to 0.15 µM on RBP4 and 0.385 µM on RBP4-TTR interaction.
`CC(=O)N1CCc2c(C(=O)N3CCC(c4c(F)cccc4C(F)(F)F)CC3)n[nH]c2C1` [Compound 156, 1-(3-(4-(2-fluoro-6-(trifluoromethyl)phenyl)piperidine-1-carbonyl)-4,5-dihydro-1H-pyrazolo[3,4-c]pyridin-6 (7H)-yl) ethanone]: the results for the IC50 at RBP4 and at RBP4-TTR interaction were 0.0194 µM and 0.248 µM, respectively.
Taken in the same sequence, the figures for `N#Cc1ccc2nnc(C(=O)N3CCC(c4c(F)cccc4C(F)(F)F)CC3)n2c1` [Compound 157, 3-(4-(2-fluoro-6-(trifluoromethyl)phenyl)piperidine-1-carbonyl)-[1,2,4]triazolo[4,3-a]pyridine-6-carbonitrile] were 0.00584 µM and 0.092 µM.
Taken in the same sequence, the figures for `CC(=O)N1CCc2c(C(=O)N3CCC(c4ccc(F)cc4C(F)(F)F)CC3)n[nH]c2C1` [Compound 158, 1-(3-(4-(4-fluoro-2-(trifluoromethyl)phenyl)piperidine-1-carbonyl)-4,5-dihydro-1H-pyrazolo[3,4-c]pyridin-6(7H)-yl)ethanone] were 0.00863 µM and 0.0368 µM.
Taken in the same sequence, the figures for `N#Cc1ccc2nnc(C(=O)N3CCC(c4cccc(Cl)c4C(F)(F)F)CC3)n2c1` [Compound 162, 3-(4-(3-Chloro-2-(trifluoromethyl)phenyl)piperidine-1-carbonyl)-[1,2,4]triazolo[4,3-a]pyridine-6-carbonitrile] were 0.00482 µM and 0.0107 µM.
With `CCN1CCc2[nH]nc(C(=O)N3CCC(c4cccc(F)c4Cl)CC3)c2C1` [Compound 163, (4-(2-Chloro-3-fluorophenyl)piperidin-1-yl)(5-ethyl-4,5,6,7-tetrahydro-1H-pyrazolo[4,3-c]pyridin-3-yl)methanone], the figures for the IC50 at RBP4 and at RBP4-TTR interaction were 0.0153 µM and 0.0553 µM, respectively.
With `O=C(c1n[nH]c2c1CN(CC1CC1)CC2)N1CCC(c2cccc(F)c2Cl)CC1` [Compound 164, (4-(2-Chloro-3-fluorophenyl)piperidin-1-yl)(5-(cyclopropylmethyl)-4,5,6,7-tetrahydro-1H-pyrazolo[4,3-c]pyridin-3-yl)methanone], the IC50 at RBP4 is 0.0136 µM; at RBP4-TTR interaction, 0.075 µM.
In the same order, the values of `O=C(c1n[nH]c2c1CN(C1COC1)CC2)N1CCC(c2cccc(F)c2Cl)CC1` [Compound 165, (4-(2-Chloro-3-fluorophenyl)piperidin-1-yl)(5-(oxetan-3-yl)-4,5,6,7-tetrahydro-1H-pyrazolo[4,3-c]pyridin-3-yl)methanone] are 0.0156 µM and 0.0648 µM.
Take `O=C(c1n[nH]c2c1CN(CCC(F)(F)F)CC2)N1CCC(c2cccc(F)c2Cl)CC1` [Compound 167, (4-(2-Chloro-3-fluorophenyl)piperidin-1-yl)(5-(3,3,3-trifluoropropyl)-4,5,6,7-tetrahydro-1H-pyrazolo[4,3-c]pyridin-3-yl)methanone]: the IC50 on RBP4 is 0.0117 µM; at RBP4-TTR interaction, 0.0488 µM.
On to `O=C(c1n[nH]c2c1CN(C(=O)N1CCNCC1)C2)N1CCC(c2ccc(F)c(F)c2C(F)(F)F)CC1` [Compound 169, (4-(3,4-Difluoro-2-(trifluoromethyl)phenyl)piperidin-1-yl)(5-(piperazine-1-carbonyl)-1,4,5,6-tetrahydropyrrolo[3,4-c]pyrazol-3-yl)methanone], for which the IC50 amounted to 0.033 µM on RBP4 and 0.0558 µM at RBP4-TTR interaction.

In general, IC50 refers to the point on the concentration scale where inhibition reaches its midpoint.
